Test results published in patent US20070134744A1, “Epothilone resistant cell lines” (priority 2000, published 2007).

What was measured:
[1] = test system: EA10 cells; test: MTS growth inhibition assay; assay type: cell-based
Protocol: (§1) Growth inhibition may be analyzed using conventional methods, for example a MTS assay (PROMEGA, Wis.) may be used. In this assay approximately 4000 cells per well are seeded in 96 well plates in MEM supplemented with 10% fetal calf serum and incubated at 37° C. in 5.0% CO2. After 24 hours, dilutions of drug (concentration range used is between 1 nM and 1000 nM) are added and cells are allowed to incubate with drug for an additional 72 hours. The MTS reagent mixed with PMS (MTS:PMS 20:1 according to manufacturer's instructions) is then added and absorbance quantitated using a Thermomax microplate reader system according to conventional methods (Molecular Devices, Sunnyvale, Calif.). […] Six assays per drug per plate are performed.
(§2) Thus, at least two potential mechanisms of epothilone A resistance may exist—a lower resistance mechanism that is cross-resistant to TAXOL® and a higher, epothilone A specific resistance mechanism.

[2] = test system: EA150 cells; test: MTS growth inhibition assay; assay type: cell-based
Protocol: as §1, §2

[3] = test system: EA20 cells; test: MTS growth inhibition assay; assay type: cell-based
Protocol: as §1, §2

[4] = test system: EA60 cells; test: MTS growth inhibition assay; assay type: cell-based
Protocol: as §1, §2

[5] = test system: MDA-MB-435 cells; test: MTS growth inhibition assay; assay type: cell-based; conditions: MTS, 72 hours drug, Table 1
Protocol: as §1, §2

[6] = test system: 297/C5/0 cells; assay type: cell-based, human; conditions: 297/C5/0 (EpoA selected), 72 hrs, average of three experiments
Protocol: (§3) Anti-proliferative assays are performed basically as described (Meyer et al., Int. J. Cancer 43:851 (1989)). Briefly, cells are seeded at 1.5×10^3 cells/well into 96-well microtiter plates and allowed to adhere by incubation overnight. Compounds are added in serial dilutions on day 1. The plates are then incubated for an additional 3 days, after which the cells are fixed with 3.3% v/v glutaraldehyde, washed with water and stained with 0.05% w/v methylene blue according to conventional methods. After washing, the dye is eluted with 3% HCl and the optical density measured at 665 nm with a SpectraMax Plus (Molecular Devices, Sunnyvale, Calif.) according to manufacturers instructions. IC50 values are determined by mathematical curve-fitting using the SoftPro2.6.1 program (Molecular Devices, Sunnyvale, Calif.) using the formula (OD treated−OD start)/(OD control−OD start)×100. […] IC50 determinations with the cell line 298/D4/40 are performed in the presence of 40 nM epothilone A.
(§4) Data in Table 4 are gathered according to the following methods: Cells (1×10^3) are seeded in 96-well plates and allowed to adhere for 24 hrs. Compounds are then added as two-fold serial dilutions and incubation continued for an additional 72 hrs. Cell numbers at the beginning and at the end of the experiment are estimated by methylene blue staining of cellular protein mass according to conventional methods. The net mass increase of vehicle-treated cells is set as 100% growth. The IC50 is determined as the drug concentration that leads to half-maximal growth inhibition compared to the control. The resistance factor (RF) for a particular drug is calculated by dividing the IC50 determined on the resistant cell line by that determined on the parental KB-31 cells. Data are presented as average±standard deviation (SD) of three separate experiments, except na=not applicable (n<3). Colchicine-selected KB-8511 cells overexpressing P-glycoprotein served as a reference for the classical multi-drug-resistant phenotype.

[7] = test system: 298/D4/40 cells; assay type: cell-based, human; conditions: 298/D4/40 (EpoA selected), 72 hrs, in the presence of 40 nM epothilone A
Protocol: as §3, §4

[8] = test system: 315/sc5.9 cells; assay type: cell-based, human
Protocol: as §3, §4

[9] = test system: KB-31 cells; test: In vitro cell growth inhibition assay (methylene blue); assay type: cell-based, human; conditions: read-out: concentration half-maximally inhibiting proliferation
Protocol: as §3
The epothilone resistant cell lines, EpoA320-80C, EpoA320/ND, 298/D4/40, 297/C5/0 and 315/sc5.9 are generated as disclosed above. […] A subclone, 298/D4/40, is adapted to grow in the presence of 40 nM epothilone A administered twice weekly (i.e. at every medium change). […]

[10] = test system: EA60 cells; test: Cell cycle analysis by FACS; assay type: cell-based; conditions: 24 hours, 60 nM epothilone A
Protocol: (§5) Cells are fixed by resuspending in cold 70% ethanol, washing again with 5 ml of PBS and resuspending in PI solution ([…] propidium iodide, 38 mM sodium citrate, 20 μg/ml RNAse A). After incubation in PI solution at 37° C. for 30 minutes, cells are analyzed by flow cytometry according to conventional methodology (apparatus and software commercially available from Becton Dickinson Immunocytometry Systems, CA).
(§6) Cell cycle distribution patterns of epothilone A resistant and parental MDA-MB-435 epothilone A sensitive cells are compared by standard FACS analysis. […] Thus, a significant part of the epothilone A resistant cell population appears to overcome the G2/M block that normally occurs in the cell cycle of epothilone A sensitive cells.

[11] = test system: MDA-MB-435 cells; test: Cell cycle analysis by FACS; assay type: cell-based; conditions: 24 hours, 20 nM epothilone A
Protocol: as §5, §6

C/C(=C\c1csc(C)n1)[C@@H]1C[C@@H]2O[C@@H]2CCC[C@H](C)[C@H](O)[C@@H](C)C(=O)C(C)(C)[C@@H](O)CC(=O)O1 [Epothilone A, epothilone A]
increase in IC50 over MDA-MB-435 cells [1]: 5 fold | IC50 ([1]; MTS, 72 hours drug, Table 1): 18 ± 3.8 nM | increase in IC50 over MDA-MB-435 cells [2]: > 100 fold | IC50 ([2]; MTS, 72 hours drug, Table 1): > 500 nM | increase in IC50 over MDA-MB-435 cells [3]: 7 fold | IC50 ([3]; MTS, 72 hours drug, Table 1): 28 ± 3 nM | increase in IC50 over MDA-MB-435 cells [4]: 15 fold | IC50 ([4]; MTS, 72 hours drug, Table 1): 82 ± 1.5 nM | IC50 [5]: 4 ± 1.8 nM | RF (resistance factor: IC50 resistant cell line / IC50 parental KB-31) [6]: 44.7 | RF (resistance factor: IC50 resistant cell line / IC50 parental KB-31) [7]: 71.4 | RF (resistance factor: IC50 resistant cell line / IC50 parental KB-31) ([8]; 315/sc5.9 (EpoB selected), 72 hrs, average of three experiments): 1.2 | resistance profile in words ([8]; 315/sc5.9 vs parental KB-31): marginal cross-resistance | IC50 [9]: 3.2 nM | cell cycle distribution [10]: overcomes the G2/M phase block | cell cycle distribution [11]: blocked at the G2/M phase
